Measurements reported in patent publication US11518755B2, “Stable solutions of multicyclic antidepressants” (Leyden Technologies B.V., priority 2017, dated 2022).

Test: Solubility of clozapine in different solvent systems (excess clozapine, shaken 24 hours, HPLC)
Assay type: physicochemical
Protocol: For clozapine, solutions of 20 mg/mL or more are preferred for oral administration of the solution. For soft gel capsules an even higher concentration is preferable. Therefore, a solubility study for clozapine was performed. An excess of clozapine was weighed in a HPLC vial and 1.0 mL of various solvent systems was added. Following, the mixture was placed on a mechanical shaker for 24 hours at 200 RPM and analysed by HPLC for clozapine content.

- clozapine content after 24 hours (solvent system: 0.1% acetic acid in water): 4.7 mg/mL
- clozapine content after 24 hours (solvent system: 1% acetic acid in water): 38.1 mg/mL
- clozapine content after 24 hours (solvent system: 1% citric acid in water): 27.6 mg/mL
- clozapine content after 24 hours (solvent system: 5% Transcutol P in PEG400): 91.8 mg/mL
- clozapine content after 24 hours (solvent system: 5% acetic acid in water): 51.5 mg/mL
- clozapine content after 24 hours (solvent system: 5% citric acid in water): 34.2 mg/mL
- clozapine content after 24 hours (solvent system: 10% Transcutol P in PEG400): 91.3 mg/mL
- clozapine content after 24 hours (solvent system: 10% acetic acid in water): 59.8 mg/mL
- clozapine content after 24 hours (solvent system: 10% citric acid in water): 50.7 mg/mL
- clozapine content after 24 hours (solvent system: 20% Kolliphor RH40/PEG400 (10:90)): 72.8 mg/mL
- clozapine content after 24 hours (solvent system: 20% Transcutol P in PEG400): 99.5 mg/mL
- clozapine content after 24 hours (solvent system: 20% kolliphor RH40 in water): 7.4 mg/mL
- clozapine content after 24 hours (solvent system: 40% corn oil in miglyol): 8.4 mg/mL
- clozapine content after 24 hours (solvent system: 50% solutol in water): 17.8 mg/mL
- clozapine content after 24 hours (solvent system: 50% solutol/PEG400 (10:90)): 81.6 mg/mL
- clozapine content after 24 hours (solvent system: 100% Transcutol P): 151.3 mg/mL
- clozapine content after 24 hours (solvent system: Caprylocaproyl macrogol-8 glycerides (Labrasol ®)): 34.0 mg/mL
- clozapine content after 24 hours (solvent system: Citrate buffer pH 3.4): 57.2 mg/mL
- clozapine content after 24 hours (solvent system: Citrate buffer pH 3.7): 44.0 mg/mL
- clozapine content after 24 hours (solvent system: Citrate buffer pH 4.0): 34.3 mg/mL
- clozapine content after 24 hours (solvent system: Citrate buffer pH 4.7): 19.9 mg/mL
- clozapine content after 24 hours (solvent system: Corn oil): 5.1 mg/mL
- clozapine content after 24 hours (solvent system: N,N′-dimethyl acetamide (DMA)): 106.8 mg/mL
- clozapine content after 24 hours (solvent system: N-methyl-2-pyrrolydone (NMP)): 409.7 mg/mL
- clozapine content after 24 hours (solvent system: PEG200): 81.8 mg/mL
- clozapine content after 24 hours (solvent system: PEG400): 77.0 mg/mL
- clozapine content after 24 hours (solvent system: PEG400/34 mmol Citrate buffer, 20:80 (V/V)): 52.7 mg/mL
- clozapine content after 24 hours (solvent system: PEG400/34 mmol Citrate buffer, 40:60 (V/V)): 52.3 mg/mL
- clozapine content after 24 hours (solvent system: PEG400/34 mmol Citrate buffer, 60:40 (V/V)): 47.6 mg/mL
- clozapine content after 24 hours (solvent system: PEG400/34 mmol Citrate buffer, 80:20 (V/V)): 49.8 mg/mL
- clozapine content after 24 hours (solvent system: PEG400/Citrate buffer pH 4.0, 50:50 (V/V)): 33.4 mg/mL
- clozapine content after 24 hours (solvent system: PEG400/Citrate buffer pH 4.0, 60:40 (V/V)): 29.6 mg/mL
- clozapine content after 24 hours (solvent system: PEG400/Citrate buffer pH 4.0, 70:30 (V/V)): 32.1 mg/mL
- clozapine content after 24 hours (solvent system: PEG400/Citrate buffer pH 4.0, 80:20 (V/V)): 44.6 mg/mL
- clozapine content after 24 hours (solvent system: PEG400/Citrate buffer pH 4.0, 90:10 (V/V)): 56.2 mg/mL
- clozapine content after 24 hours (solvent system: PEG400/water (50:50)): 2.3 mg/mL
- clozapine content after 24 hours (solvent system: PEG400/water (60:40)): 6.5 mg/mL
- clozapine content after 24 hours (solvent system: PEG400/water (70:30)): 14.0 mg/mL
- clozapine content after 24 hours (solvent system: PEG400/water (80:20)): 31.1 mg/mL
- clozapine content after 24 hours (solvent system: PEG600/water (90:10)): 65.2 mg/mL
- clozapine content after 24 hours (solvent system: ethanol): 33.9 mg/mL
- clozapine content after 24 hours (solvent system: glycerol): 0.5 mg/mL
- clozapine content after 24 hours (solvent system: miglyol): 10.3 mg/mL
- clozapine content after 24 hours (solvent system: water): 0.3 mg/mL
Structure (SMILES): CN1CCN(C2=Nc3cc(Cl)ccc3Nc3ccccc32)CC1 [Clozapine, 8-Chloro-11-(4-methylpiperazin-1-yl)-5H-dibenzo[b,e][1,4]diazepine]
